From publication PMC10472861, “Potent inhibition of human tyrosinase inhibitor by verproside from the whole plant of Pseudolysimachion rotundum var. subintegrum” (Journal of Enzyme Inhibition and Medicinal Chemistry, 2023) come the findings set out here.

The structures appear in SMILES notation.

For test [1], the target named is T1, Mushroom tyrosinase (mTyr) (Agaricus bisporus, UniProt C7FF04).
T1 construct: purchased Sigma Chemical Co. T3824-50KU
Kind of test: Mushroom tyrosinase inhibition, L-DOPA substrate (diphenolase). Format: biochemical.
Target sequence in this assay (C7FF04 1-392 limits assumed): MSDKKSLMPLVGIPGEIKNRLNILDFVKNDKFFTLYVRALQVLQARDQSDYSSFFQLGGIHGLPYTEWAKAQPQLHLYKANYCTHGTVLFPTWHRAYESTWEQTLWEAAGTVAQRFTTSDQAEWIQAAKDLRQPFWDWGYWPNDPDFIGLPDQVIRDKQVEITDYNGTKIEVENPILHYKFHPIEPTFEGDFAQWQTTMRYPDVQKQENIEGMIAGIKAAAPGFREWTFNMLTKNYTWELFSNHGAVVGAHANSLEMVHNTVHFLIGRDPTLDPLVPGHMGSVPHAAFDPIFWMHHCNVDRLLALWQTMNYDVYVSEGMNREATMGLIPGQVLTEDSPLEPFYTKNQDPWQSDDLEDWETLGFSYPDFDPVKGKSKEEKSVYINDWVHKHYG

For test [2], the system named is mushroom tyrosinase. Description: Affinity-based ultrafiltration UPLC-QTOF-MS binding experiment. The settings on record: UPLC-QTOF-MS peak area in 1000 ppm extract, not exposed to enzyme. As for the experimental part: (§1) Affinity-based ultrafiltration was performed as previously described by Zuo et al. and Wang et al.[15]^,[19]^,[23]. First, […] of 0.25 M phosphate buffer (pH 6.8) with 10% glycerol was added to 13 μL of mushroom tyrosinase (144 U in the same phosphate buffer solution) and 100 μL of 1000 mg/mL extract (the test solution was consistently 3.3%). The final concentration of the extract was adjusted to 1000 ppm. The mixture was incubated for 15 or 50 min at 37 °C on a plate shaker. Then, the sample was centrifuged at 13,000 rpm for 20 min, and the supernatant was collected for analysis. The supernatant solution was filtered through a membrane (PTFE 0.2 μm, hydrophobic, Advantec, Japan), and 2 μL of each solution was injected for UPLC-PDA-QTOF-MS analysis.
(§2) The compounds from the P. rotundum var. subintegrum extract were analysed by UPLC-PDA-ESI-QTOF-MS. […] MS was performed in negative ion mode ([M − H]^−). N2 was used as the desolvation gas, the desolvation temperature was set to 350 °C at a flow rate of 400 L/h with a source temperature of 100 °C. The capillary and cone voltages were set to 2300 and 50 V, respectively. The data for each sample were collected with a scan time of 0.25 s and a 0.01 s interscan delay. Exact MS, MS/MS, and elemental analysis were confirmed using MassLynx software incorporated into the Waters instrument.

Test [3] concerns the target T2, mushroom tyrosinase (Agaricus bisporus, UniProt C7FF04).
T2 construct: purchased Sigma Chemical Co. T3824-50KU
The description is as above. The note with it: for after tyrosinase (area): UPLC-QTOF-MS peak area in 1000 ppm extract after incubation with mTyr; for Relative metabolite intensity upon treatment with mTyr: extract treated with mTyr, 15 min preincubation. As for the experimental part: as §1, §2

Test [4] has as its target T1, Mushroom tyrosinase (mTyr). Kind of test: Mushroom tyrosinase inhibition, L-tyrosine substrate (monophenolase). Format: biochemical. The note with it: for inhibition at 100 µM: read-out: Mushroom Tyrosinase L-Tyrosine 100 µM inhibition (%).
Target sequence in this assay (C7FF04 1-392): as the sequence (C7FF04 1-392 limits assumed) above
Where [5] appears, read: mTyr, L-DOPA substrate, read-out: Mushroom Tyrosinase L-DOPA IC50.
Where [6] appears, read: mTyr, L-tyrosine substrate (monophenolase), read-out: Mushroom Tyrosinase L-Tyrosine IC50.

T2 sequence (C7FF04 1-392): as the sequence (C7FF04 1-392 limits assumed) above

For `COc1ccc(C(=O)OC2C3C=COC(OC4OC(CO)C(O)C(O)C4O)C3C3(CO)OC23)cc1OC` (stereo not drawn) [6-O-Veratroyl catalpol (9), 6-O-Veratroyl catalpol], the IC50 in test [1] (setting [5]) and in test [4] (setting [6]) was more than 200 µM each time. Further, the “Control (area)” value in test [2] stood at 15756 area. The “after tyrosinase (area)” value in test [3] is 11932 area. Also, the inhibition (commonly how much of the control response was suppressed) at 100 µM in test [4] was 6.1%.

Take `O=C(O[C@H]1[C@@H]2C=CO[C@@H](O[C@@H]3O[C@H](CO)[C@@H](O)[C@H](O)[C@H]3O)[C@@H]2[C@@]2(CO)O[C@@H]12)c1ccc(O)cc1` [Catalposide (3), Catalposide]: the IC50 in test [1] (setting [5]) and in test [4] (setting [6]) was more than 200 µM in each case. Also, the “Control (area)” value in test [2] is recorded as 26121 area. The “after tyrosinase (area)” value in test [3] was found to be 21250 area. The inhibition at 100 µM in test [4] came to 9.9%.

Consider `COc1ccc(C(=O)OC2C3C=COC(OC4OC(CO)C(O)C(O)C4O)C3C3(CO)OC23)cc1O` (stereo not drawn) [Isovanillyl catapol (7), Isovanillyl catapol], for which the IC50 in test [1] (setting [5]) and in test [4] (setting [6]) was more than 200 µM in each case. Further, in test [2], the “Control (area)” value came out at 12844 area. Also, the “after tyrosinase (area)” value in test [3] is 8093 area. The inhibition at 100 µM in test [4] is 10.1%.

For the compound `O=C(OC1C2C=COC(OC3OC(CO)C(O)C(O)C3O)C2C(O)(CO)C1Cl)c1ccc(O)c(O)c1` (stereo not drawn) [Longifolioside A (2), Longifolioside A], the IC50 (usually the concentration that gives 50% inhibition) in test [1] (setting [5]) is more than 200 µM. Moreover, the “Control (area)” value in test [2] was 10677 area. Besides, in test [3], the “after tyrosinase (area)” value was 3852 area and the “Relative metabolite intensity upon treatment with mTyr” value is on record as “significantly reduced”. For the same compound, the IC50 in test [4] (setting [6]) is 193 ± 10.5 µM. Also, the inhibition at 100 µM in test [4] turned out to be 36%.

As to `COc1ccc(/C=C/C(=O)O[C@H]2[C@@H]3C=CO[C@@H](O[C@@H]4O[C@H](CO)[C@@H](O)[C@H](O)[C@H]4O)[C@@H]3[C@@]3(CO)O[C@@H]23)cc1O` [Minecoside (8), Minecoside], the IC50 in test [1] (setting [5]) is more than 200 µM; in test [4] (setting [6]), 132 ± 8.3 µM. The “Control (area)” value in test [2] is 976 area. The “after tyrosinase (area)” value in test [3] was found to be 465 area. Besides, in test [4], the inhibition at 100 µM worked out at 41.7%.

For `COc1cc(C(=O)O[C@H]2[C@@H]3C=CO[C@@H](O[C@@H]4O[C@H](CO)[C@@H](O)[C@H](O)[C@H]4O)[C@@H]3[C@@]3(CO)O[C@@H]23)ccc1O` [Picroside II (5), Picroside II], the IC50 in test [1] was more than 200 µM. The “Control (area)” value in test [2] is recorded as 17798 area. The “after tyrosinase (area)” value in test [3] is listed as 12194 area. Besides, in test [4], the IC50 was more than 200 µM and the inhibition at 100 µM came to 5.3%.

Turning to `O=C(OC1C2CC3OCC(O)(C1Cl)C2C(OC1OC(CO)C(O)C(O)C1O)O3)c1ccc(O)c(O)c1` (stereo not drawn) [Piscroside C (6), Piscroside C], the IC50 in test [1] (setting [5]) and in test [4] (setting [6]) was more than 200 µM each time. Further, the “Control (area)” value in test [2] was found to be 44999 area. Moreover, in test [3], the “after tyrosinase (area)” value stood at 22171 area. Moreover, in test [4], the inhibition at 100 µM turned out to be 6.7%.

As for `O=C(/C=C/c1ccc(O)c(O)c1)O[C@@H]1C2C=CO[C@H](O[C@@H]3O[C@H](CO)[C@@H](O)[C@H](O)[C@H]3O)C2[C@]2(CO)O[C@H]12` (stereo partly drawn) [Verminoside (4), Verminoside], the IC50 in test [1] (setting [5]) and in test [4] (setting [6]) was more than 200 µM each time. For the same compound, in test [2], the “Control (area)” value amounted to 16481 area. Also, the “after tyrosinase (area)” value in test [3] is reported as 2886 area. Further, in test [3], the “Relative metabolite intensity upon treatment with mTyr” value is reported as “significantly reduced”. The inhibition at 100 µM in test [4] is 8.9%.
